According to patent US9085555B2, “Complement pathway modulators and uses thereof” (priority 2011, dated 2015):

These molecules were tested against Factor D (Homo sapiens (Human), UniProt P00746) (assay: biochemical). Settings: read-out: IC50.
Assay type: biochemical

Sequence of Factor D (P00746 26-253): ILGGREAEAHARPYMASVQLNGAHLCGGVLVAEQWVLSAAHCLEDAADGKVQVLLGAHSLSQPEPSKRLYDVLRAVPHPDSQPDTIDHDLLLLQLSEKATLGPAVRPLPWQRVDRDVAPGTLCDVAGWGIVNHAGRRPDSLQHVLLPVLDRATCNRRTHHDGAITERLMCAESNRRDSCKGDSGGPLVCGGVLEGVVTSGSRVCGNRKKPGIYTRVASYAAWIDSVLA

`C=CCOc1ccc2c(c1)c(NC(=O)N1CCC[C@H]1C(=O)Nc1cccc(OC(F)(F)F)c1)cn2C(N)=O` [Example 335, (S)-Pyrrolidine-1,2-dicarboxylic acid 1-[(5-allyloxy-1-carbamoyl-1H-indol-3-yl)-amide] 2-[(3-trifluoromethoxy-phenyl)-amide]] and `C[C@@H]1CC[C@@H](C(=O)Nc2cccc(OC(F)(F)F)c2)N1C(=O)Nc1cn(C(N)=O)c2ccccc12` [Example 336, (2S,5R)-5-Methyl-pyrrolidine-1,2-dicarboxylic acid 1-[(1-carbamoyl-1H-indol-3-yl)-amide]2-[(3-trifluoromethoxy-phenyl)-amide]] are within 1.5-fold of each other in IC50: 550 nM for the first, 750 nM for the second.

Going from `C[C@H]1CC[C@@H](C(=O)Nc2cccc(OC(F)(F)F)c2)N1C(=O)Nc1cn(C(N)=O)c2ccccc12` [Example 337, (2S,5S)-5-Methyl-pyrrolidine-1,2-dicarboxylic acid 1-[(1-carbamoyl-1H-indol-3-yl)-amide]2-[(3-trifluoromethoxy-phenyl)-amide]] to `CC[C@@H]1CC[C@@H](C(=O)Nc2cccc(OC(F)(F)F)c2)N1C(=O)Nc1cn(C(N)=O)c2ccccc12` [Example 338, (2S,5R)-5-Ethyl-pyrrolidine-1,2-dicarboxylic acid 1-[(1-carbamoyl-1H-indol-3-yl)-amide]2-[(3-trifluoromthoxy-phenyl)-amide]], the IC50 rises from 250 nM to 18900 nM (76-fold). The first is the more potent here.

Going from `NC(=O)n1cc(NC(=O)N2C[C@H](F)C[C@H]2C(=O)Nc2cc(Cl)cc(C(=O)O)c2)c2ccccc21` [Example 339, 3-Chloro-5-{[(2S,4R)-1-(1-carbamoyl-1H-indol-3-ylcarbamoyl)-4-fluoro-pyrrolidine-2-carbonyl]-amino}-benzoic acid] to `NC(=O)n1cc(NC(=O)N2C[C@H](F)C[C@H]2C(=O)Nc2cc(C(=O)O)cc(Br)c2F)c2ccccc21` [Example 343, 3-Bromo-5-{[(2S,4R)-1-(1-carbamoyl-1H-indol-3-ylcarbamoyl)-4-fluoro-pyrrolidine-2-carbonyl]-amino}-4-fluoro-benzoic acid], the IC50 falls from 65 nM to 30 nM (2.2-fold). The second is the more potent here.

Going from `NC(=O)n1cc(NC(=O)N2CCS[C@H]2C(=O)Nc2cc(Br)cc(C(=O)O)c2)c2ccccc21` [Example 341, 3-Bromo-5-{[(S)-3-(1-carbamoyl-1H-indol-3-ylcarbamoyl)-thiazolidine-2-carbonyl]-amino}-benzoic acid] to `COc1ccc2c(c1)c(NC(=O)N1[C@@H]3C[C@@H]3C[C@H]1C(=O)Nc1cc(Br)cc(C(=O)O)c1)cn2C(N)=O` [Example 342, 3-Bromo-5-{[(1R,3S,5R)-2-(1-carbamoyl-5-methoxy-1H-indol-3-ylcarbamoyl)-2-aza-bicyclo[3.1.0]hexane-3-carbonyl]-amino}-benzoic acid], the IC50 falls from 95 nM to 55 nM (1.7-fold).

First: NC(=O)n1cc(NC(=O)N2[C@@H]3C[C@@H]3C[C@H]2C(=O)Nc2cc(Br)cc(-c3nnn[nH]3)c2)c2ccccc21 [Example 344, (1R,3S,5R)-2-Aza-bicyclo[3.1.0]hexane-2,3-dicarboxylic acid 3-{[3-bromo-5-(1H-tetrazol-5-yl)-phenyl]-amide}2-[(1-carbamoyl-1H-indol-3-yl)-amide]]
Second: CC(C)(C)n1nnnc1-c1cc(Br)cc(NC(=O)[C@@H]2C[C@H]3C[C@H]3N2C(=O)Nc2cn(C(N)=O)c3ccccc23)c1 [Example 345, (1R,3S,5R)-2-Aza-bicyclo[3.1.0]hexane-2,3-dicarboxylic acid 3-{[3-bromo-5-(1-tert-butyl-1H-tetrazol-5-yl)-phenyl]-amide}2-[(1-carbamoyl-1H-indol-3-yl)-amide]]
The IC50 of the first is 12-fold lower: 68 nM for the first, 800 nM for the second.

For `NC(=O)n1cc(NC(=O)N2C[C@H](F)C[C@H]2C(=O)NCc2cc(-c3nnn[nH]3)cc(Cl)c2F)c2ccccc21` [Example 346, (2S,4R)-4-Fluoro-pyrrolidine-1,2-dicarboxylic acid 1-[(1-carbamoyl-1H-indol-3-yl)-amide]2-[3-chloro-2-fluoro-5-(1H-tetrazol-5-yl)-benzylamide]], the IC50 was 69 nM.
